Data: article PMC7215373, “Design, Synthesis, and Anticancer Evaluation of Novel Indole Derivatives of Ursolic Acid as Potential Topoisomerase II Inhibitors” (International Journal of Molecular Sciences, 2020)

Key:
DNA topoisomerase I = molecular target: T1, DNA topoisomerase I (Bos taurus, UniProt F1MN93); test: Topoisomerase I relaxation assay (supercoiled pBR322); type: biochemical; settings: for inhibition at 100 µM: 100 μM compound, read-out: Topo I Inhibition (%) 100 μM; for inhibition at 20 µM: 20 μM compound, read-out: Topo I Inhibition (%) 20 μM
T1 construct: purchased TaKaRa, Kyoto, Japan
T1 sequence (F1MN93 1-767): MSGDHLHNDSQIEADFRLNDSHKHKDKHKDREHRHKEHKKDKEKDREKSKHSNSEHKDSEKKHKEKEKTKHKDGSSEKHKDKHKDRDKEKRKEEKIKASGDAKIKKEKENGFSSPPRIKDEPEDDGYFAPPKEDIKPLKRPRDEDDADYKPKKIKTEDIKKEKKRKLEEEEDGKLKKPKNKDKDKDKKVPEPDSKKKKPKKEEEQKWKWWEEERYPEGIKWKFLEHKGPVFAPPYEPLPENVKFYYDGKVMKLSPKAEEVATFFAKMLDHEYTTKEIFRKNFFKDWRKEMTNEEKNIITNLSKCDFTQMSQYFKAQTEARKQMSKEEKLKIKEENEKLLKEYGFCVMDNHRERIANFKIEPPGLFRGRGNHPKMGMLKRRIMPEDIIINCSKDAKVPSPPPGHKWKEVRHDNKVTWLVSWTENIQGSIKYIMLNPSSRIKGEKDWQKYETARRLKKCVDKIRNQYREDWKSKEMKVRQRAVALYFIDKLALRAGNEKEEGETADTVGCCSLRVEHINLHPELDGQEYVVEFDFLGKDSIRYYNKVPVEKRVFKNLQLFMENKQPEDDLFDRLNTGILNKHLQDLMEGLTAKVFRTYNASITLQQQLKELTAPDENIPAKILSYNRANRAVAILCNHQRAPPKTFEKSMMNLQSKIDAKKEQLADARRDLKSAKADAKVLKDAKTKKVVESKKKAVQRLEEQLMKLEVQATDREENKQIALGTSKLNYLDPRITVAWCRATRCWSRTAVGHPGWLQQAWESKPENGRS
Experimental: The effect of the tested compounds on Topo I and II activities were evaluated by Topo I/II relaxation assays. The reaction products, relaxed DNA could be distinguished from supercoiled DNA by gel electrophoresis and visualized using gel imaging system. The activity of DNA topoisomerase I (TaKaRa, Kyoto, Japan) was determined by measuring the relaxation of supercoiled DNA pBR322 [32]. Camptothecin was used as a positive control. The reaction mixture was prepared according to the manufacture's protocol, and incubated at 37 °C for 30 min. The reactions were terminated by adding dye solution containing 1% SDS, 0.02% bromophenol blue and 50% glycerol. The mixtures were applied to 1% agarose gel and subjected to electrophoresis for 1 h, in 1× TAE buffer (40 mM Tris-acetate, 1 mM EDTA). Gels were stained for 30 min in 60 mL 1× TAE buffer with ethidium bromide (0.5 μg/mL). DNA bands were visualized by transillumination with UV light and then photographed by a Gel Doc XR+ System (BIO-RAD, Hercules, CA, USA).

SMMC-7721 cells = test: MTT cytotoxicity assay, SMMC-7721; type: cell-based, human; settings: 48 h exposure
Experimental: (§1) The in vitro cytotoxic activities of synthesized compounds were evaluated against two human hepatocarcinoma cell lines (SMMC-7721 and HepG2) and the human normal hepatocyte cell line (LO2) via MTT assay. All tested compounds were dissolved in DMSO and the stock solutions were diluted by DMEM medium before treatment of the cultured cells. […] Cell lines were obtained from American Tissue Culture Collection (ATCC). Briefly, different tumor cells were grown in DMEM medium supplemented with 10% fetal bovine serum, penicillin (100 U/mL), and streptomycin (50 μg/mL). Cells were harvested at log phase of growth and seeded in 96-well plates (100 μL/well at a density of 2 × 10^5 cells/mL). After 24 h incubation at 37 °C and 5% CO2 to allow cell attachment, cultures were exposed to various concentrations of the isolated compounds for 48 h. Finally, MTT solution (2.5 mg/mL in PBS) was added (40 μL/well). Plates were further incubated for 4 h at 37 °C, and the formazan crystals formed were dissolved by adding 150 μL/well of DMSO. Absorption at 570 nm was measured with an ELISA plate reader. […] Doxorubicin, camptothecin, and etoposide (VP-16) were co-assayed as positive controls.

LO2 cells = test: MTT cytotoxicity assay, normal hepatocyte LO2; type: cell-based; settings: Homo sapiens, L02, 48 h exposure, normal hepatocyte cell line
Experimental: as §1

HepG2 cells = test: MTT cytotoxicity assay, HepG2; type: cell-based, human; settings: 48 h exposure
Experimental: as §1

Human Topoisomerase IIα = molecular target: T2, Human Topoisomerase IIα (Homo sapiens, UniProt P11388); test: Topoisomerase II relaxation assay (supercoiled pBR322); type: biochemical; settings: for inhibition at 20 µM: 20 μM compound, read-out: Topo II Inhibition (%) 20 μM; for inhibition at 100 µM: 100 μM compound, read-out: Topo II Inhibition (%) 100 μM
T2 construct: purchased USB, Affymetrix, Waltham, MA, USA
T2 sequence (P11388 whole entry): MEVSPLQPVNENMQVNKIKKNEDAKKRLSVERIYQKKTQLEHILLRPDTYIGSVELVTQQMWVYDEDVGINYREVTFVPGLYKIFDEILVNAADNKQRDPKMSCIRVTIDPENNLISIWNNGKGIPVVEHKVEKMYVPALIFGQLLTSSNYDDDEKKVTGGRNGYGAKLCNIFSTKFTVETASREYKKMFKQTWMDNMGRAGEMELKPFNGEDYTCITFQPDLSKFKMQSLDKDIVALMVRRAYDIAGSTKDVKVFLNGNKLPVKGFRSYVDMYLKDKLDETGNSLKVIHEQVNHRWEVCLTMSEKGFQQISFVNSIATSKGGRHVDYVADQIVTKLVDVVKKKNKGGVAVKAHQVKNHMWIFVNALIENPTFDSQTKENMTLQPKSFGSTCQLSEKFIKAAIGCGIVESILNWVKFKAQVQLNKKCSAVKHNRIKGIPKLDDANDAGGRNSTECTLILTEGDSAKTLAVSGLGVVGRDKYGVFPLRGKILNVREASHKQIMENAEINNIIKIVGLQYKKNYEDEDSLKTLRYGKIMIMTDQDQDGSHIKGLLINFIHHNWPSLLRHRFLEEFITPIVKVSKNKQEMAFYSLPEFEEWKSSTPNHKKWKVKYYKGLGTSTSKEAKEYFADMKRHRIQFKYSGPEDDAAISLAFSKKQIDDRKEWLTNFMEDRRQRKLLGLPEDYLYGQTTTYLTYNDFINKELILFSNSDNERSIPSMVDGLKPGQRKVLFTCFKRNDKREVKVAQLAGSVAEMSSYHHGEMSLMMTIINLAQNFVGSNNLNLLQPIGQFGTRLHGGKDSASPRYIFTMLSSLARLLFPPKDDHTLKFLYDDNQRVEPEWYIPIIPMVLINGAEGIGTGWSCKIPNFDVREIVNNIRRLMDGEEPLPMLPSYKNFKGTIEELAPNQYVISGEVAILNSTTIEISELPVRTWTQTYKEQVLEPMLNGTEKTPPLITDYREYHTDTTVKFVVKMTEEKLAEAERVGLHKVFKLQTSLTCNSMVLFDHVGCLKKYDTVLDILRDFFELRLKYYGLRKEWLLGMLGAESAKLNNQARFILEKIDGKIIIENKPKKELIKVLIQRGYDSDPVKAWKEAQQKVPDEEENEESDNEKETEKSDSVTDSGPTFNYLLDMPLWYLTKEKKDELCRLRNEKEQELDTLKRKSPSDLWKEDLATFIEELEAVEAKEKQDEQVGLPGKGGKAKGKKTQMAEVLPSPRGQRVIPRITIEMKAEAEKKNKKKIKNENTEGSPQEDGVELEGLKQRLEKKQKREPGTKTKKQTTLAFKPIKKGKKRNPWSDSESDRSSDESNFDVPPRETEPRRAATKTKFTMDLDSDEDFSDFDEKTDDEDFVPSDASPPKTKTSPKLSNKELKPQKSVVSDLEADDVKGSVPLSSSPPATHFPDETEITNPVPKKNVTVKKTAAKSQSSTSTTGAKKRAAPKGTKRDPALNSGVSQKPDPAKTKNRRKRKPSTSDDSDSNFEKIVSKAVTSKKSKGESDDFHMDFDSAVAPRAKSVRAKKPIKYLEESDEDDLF
Experimental: The effect of the tested compounds on Topo I and II activities were evaluated by Topo I/II relaxation assays. The reaction products, relaxed DNA could be distinguished from supercoiled DNA by gel electrophoresis and visualized using gel imaging system. Human Topoisomerase IIα activity was detected by measuring the relaxation of supercoiled pBR322 plasmid DNA [22]. […] For inhibition studies, the compounds were pre-incubated with human Topo IIα and DNA for 15 min. Compounds were used at the appropriate concentrations by dissolving in 2% (v/v) DMSO. DMSO didn't show detrimental effect on the enzyme activity at concentration up to 2% (v/v). Reaction mixture was incubated at 37 °C for 30 min and stopped by the addition of 7 mM EDTA. Reaction product was mixed with DNA loading dye and electrophoresed on 1% TAE-Agarose. The gel was stained with ethidium bromide (0.5 μg/mL) for 30 min, destained twice in 1× TAE buffer, and then visualized using a BIO-RAD Gel Doc XR+ System. Etoposide (VP-16) was co-assayed as a positive control.

Cc1ccc2[nH]c3c(c2c1)C[C@@]1(C)C(CC[C@]2(C)C1CC=C1C4[C@@H](C)[C@H](C)CC[C@]4(C(=O)NCCCN4CCCCC4)CC[C@]12C)C3(C)C (stereo partly drawn) [5d, N-(3-(Piperidin-1-yl)propyl)-5′-methyl-1′H-ursa-2,12-dieno[3,2-b]indol-28-carboxamide]
melting point: 183 to 185 °C
inhibition at 100 µM (DNA topoisomerase I): 0%
IC50 (SMMC-7721 cells; Homo sapiens, SMMC-7721, 48 h): 0.89 ± 0.11 µM
IC50 (LO2 cells): 12.8 ± 0.83 µM
IC50 (HepG2 cells; Homo sapiens, HepG2, 48 h): 1.04 ± 0.09 µM
inhibition at 20 µM (Human Topoisomerase IIα): 41.3%
inhibition at 100 µM (Human Topoisomerase IIα): 81.1%

Cc1ccc2[nH]c3c(c2c1)C[C@@]1(C)C(CC[C@]2(C)C1CC=C1C4[C@@H](C)[C@H](C)CC[C@]4(C(=O)NCCCN)CC[C@]12C)C3(C)C (stereo partly drawn) [5a, N-(3-Aminopropyl)-5′-methyl-1′H-ursa-2,12-dieno[3,2-b]indol-28-carboxamide]
melting point: 205 to 207 °C
inhibition at 20 µM (DNA topoisomerase I): 12.4%
inhibition at 100 µM (DNA topoisomerase I): 24.5%
IC50 (SMMC-7721 cells; Homo sapiens, SMMC-7721, 48 h): 2.02 ± 0.21 µM
IC50 (LO2 cells): 21.3 ± 1.59 µM
IC50 (HepG2 cells; Homo sapiens, HepG2, 48 h): 2.45 ± 0.38 µM
inhibition at 20 µM (Human Topoisomerase IIα): 31.2%
inhibition at 100 µM (Human Topoisomerase IIα): 72.3%

Cc1ccc2[nH]c3c(c2c1)C[C@@]1(C)C(CC[C@]2(C)C1CC=C1C4[C@@H](C)[C@H](C)CC[C@]4(C(=O)NCCCNC(=O)[C@]45CC[C@@H](C)[C@H](C)C4C4=CCC6[C@@]7(C)Cc8c([nH]c9ccc(C)cc89)C(C)(C)C7CC[C@@]6(C)[C@]4(C)CC5)CC[C@]12C)C3(C)C (stereo partly drawn) [7b, N,N′-(propane-1,3-diyl)-bis(5′-methyl-1′H-ursa-2,12-dieno[3,2-b]indol-28-carboxamide)]
melting point: 276 to 278 °C
inhibition at 100 µM (DNA topoisomerase I): 2%
IC50 (SMMC-7721 cells; Homo sapiens, SMMC-7721, 48 h): > 50 µM
IC50 (LO2 cells): > 50 µM
IC50 (HepG2 cells; Homo sapiens, HepG2, 48 h): > 50 µM
inhibition at 20 µM (Human Topoisomerase IIα): 9.8%
inhibition at 100 µM (Human Topoisomerase IIα): 17.8%

Cc1ccc2[nH]c3c(c2c1)C[C@@]1(C)C(CC[C@]2(C)C1CC=C1C4[C@@H](C)[C@H](C)CC[C@]4(C(=O)NCCCCNC(=O)[C@]45CC[C@@H](C)[C@H](C)C4C4=CCC6[C@@]7(C)Cc8c([nH]c9ccc(C)cc89)C(C)(C)C7CC[C@@]6(C)[C@]4(C)CC5)CC[C@]12C)C3(C)C (stereo partly drawn) [7c, N,N′-(butane-1,4-diyl)-bis(5′-methyl-1′H-ursa-2,12-dieno[3,2-b]indol-28-carboxamide)]
melting point: 255 to 258 °C
inhibition at 100 µM (DNA topoisomerase I): 0%
IC50 (SMMC-7721 cells; Homo sapiens, SMMC-7721, 48 h): > 50 µM
IC50 (LO2 cells): > 50 µM
IC50 (HepG2 cells; Homo sapiens, HepG2, 48 h): > 50 µM
inhibition at 20 µM (Human Topoisomerase IIα): 8.1%
inhibition at 100 µM (Human Topoisomerase IIα): 16.9%

Cc1ccc2[nH]c3c(c2c1)C[C@@]1(C)C(CC[C@]2(C)C1CC=C1C4[C@@H](C)[C@H](C)CC[C@]4(C(=O)NCCCCN)CC[C@]12C)C3(C)C (stereo partly drawn) [6a, N-(4-Aminobutyl)-5′-methyl-1′H-ursa-2,12-dieno[3,2-b]indol-28-carboxamide]
melting point: 256 to 258 °C
inhibition at 20 µM (DNA topoisomerase I): 13.7%
inhibition at 100 µM (DNA topoisomerase I): 28.8%
IC50 (SMMC-7721 cells): 1.21 ± 0.19 µM
IC50 (SMMC-7721 cells; Homo sapiens, SMMC-7721, 48 h): ~1 µM
IC50 (LO2 cells): 15.2 ± 1.15 µM
IC50 (HepG2 cells): 1.32 ± 0.21 µM
IC50 (HepG2 cells; Homo sapiens, HepG2, 48 h): ~1 µM
inhibition at 20 µM (Human Topoisomerase IIα): 27%
inhibition at 100 µM (Human Topoisomerase IIα): 71.1%

Cc1ccc2[nH]c3c(c2c1)C[C@@]1(C)C(CC[C@]2(C)C1CC=C1C4[C@@H](C)[C@H](C)CC[C@]4(C(=O)NCCCCN(C)C)CC[C@]12C)C3(C)C (stereo partly drawn) [6b, N-(4-(Dimethylamino)butyl)-5′-methyl-1′H-ursa-2,12-dieno[3,2-b]indol-28-carboxamide]
melting point: 163 to 165 °C
inhibition at 20 µM (DNA topoisomerase I): 0%
inhibition at 100 µM (DNA topoisomerase I): 15.1%
IC50 (SMMC-7721 cells; Homo sapiens, SMMC-7721, 48 h): 2.43 ± 0.21 µM
IC50 (LO2 cells): 18.2 ± 1.64 µM
IC50 (HepG2 cells; Homo sapiens, HepG2, 48 h): 2.91 ± 0.18 µM
inhibition at 20 µM (Human Topoisomerase IIα): 31.7%
inhibition at 100 µM (Human Topoisomerase IIα): 69%

CCN(CC)CCCCNC(=O)[C@]12CC[C@@H](C)[C@H](C)C1C1=CCC3[C@@]4(C)Cc5c([nH]c6ccc(C)cc56)C(C)(C)C4CC[C@@]3(C)[C@]1(C)CC2 (stereo partly drawn) [6c, N-(4-(Diethylamino)butyl)-5′-methyl-1′H-ursa-2,12-dieno[3,2-b]indol-28-carboxamide]
melting point: 132 to 134 °C
inhibition at 20 µM (DNA topoisomerase I): 0%
inhibition at 100 µM (DNA topoisomerase I): 16.8%
IC50 (SMMC-7721 cells; Homo sapiens, SMMC-7721, 48 h): 3.62 ± 0.23 µM
IC50 (LO2 cells): 28.4 ± 2.98 µM
IC50 (HepG2 cells; Homo sapiens, HepG2, 48 h): 3.45 ± 0.25 µM
inhibition at 20 µM (Human Topoisomerase IIα): 35.2%
inhibition at 100 µM (Human Topoisomerase IIα): 70%

Cc1ccc2[nH]c3c(c2c1)C[C@@]1(C)C(CC[C@]2(C)C1CC=C1C4[C@@H](C)[C@H](C)CC[C@]4(C(=O)NCCN4CCOCC4)CC[C@]12C)C3(C)C (stereo partly drawn) [4e, N-(2-Morpholinoethyl)-5′-methyl-1′H-ursa-2,12-dieno[3,2-b]indol-28-carboxamide]
melting point: 104 to 105 °C
inhibition at 100 µM (DNA topoisomerase I): 0%
IC50 (SMMC-7721 cells; Homo sapiens, SMMC-7721, 48 h): 7.82 ± 0.78 µM
IC50 (LO2 cells): > 50 µM
IC50 (HepG2 cells; Homo sapiens, HepG2, 48 h): 10.7 ± 2.09 µM
inhibition at 20 µM (Human Topoisomerase IIα): 26.8%
inhibition at 100 µM (Human Topoisomerase IIα): 63.3%

Cc1ccc2[nH]c3c(c2c1)C[C@@]1(C)C(CC[C@]2(C)C1CC=C1C4[C@@H](C)[C@H](C)CC[C@]4(C(=O)NCCN(C)C)CC[C@]12C)C3(C)C (stereo partly drawn) [4b, N-(2-(Dimethylamino)ethyl)-5′-methyl-1′H-ursa-2,12-dieno[3,2-b]indol-28-carboxamide]
melting point: 166 to 168 °C
inhibition at 100 µM (DNA topoisomerase I): 3.7%
IC50 (SMMC-7721 cells; Homo sapiens, SMMC-7721, 48 h): 4.42 ± 0.71 µM
IC50 (LO2 cells): 31.1 ± 2.63 µM
IC50 (HepG2 cells; Homo sapiens, HepG2, 48 h): 4.11 ± 0.55 µM
inhibition at 20 µM (Human Topoisomerase IIα): 36.9%
inhibition at 100 µM (Human Topoisomerase IIα): 68%
